Laboratory results: patent US20070072222A1, “FABP4 as biomarker for toxic effect” (priority 2005, published 2007)

Tests used:
[1] = tested on: rat FABP4 (SEQ. ID NO: 2); assay: FABP4 gene expression in rat liver (Affymetrix microarray RG U34A); format: in vivo, Wistar rats; settings: for FABP4 expression relative to time matched vehicle control, Affymetrix result (Fold change): rat liver
Experimental: (§1) The expression levels of FABP4 of the mice (SEQ. ID NO: 3) were measured using Affymetrix microarrays (MEA 230 plus, probe sets: 1417023_a_at, 1424155_at, 1425809_at, 1451263_a_at) or Applied Biosystems Assays on Demand (assay ID: Mm00445880_ml). The expression levels of FABP4 of the rat (SEQ. ID NO: 2) were measured using Affymetrix microarrays (RG U34A, probe set: rc_AI169612_at) or Applied Biosystems Assays on Demand (assay ID: Rn00670361_ml). The expression levels of FABP4 of the monkeys were not measured.
(§2) Wistar rats (RCC Ltd, Füllinsdorf): • treatment with INDOMETHACIN (1-(4-Chlorobenzoyl)-5-methoxy-2-methyl-3-indoleacetic acid, Sigma I7378), single dose p.o. (orally); doses were 0, 2, 10 and 20 mg/kg • Treatment with INDOMETHACIN (1-(4-Chlorobenzoyl)-5-methoxy-2-methyl-3-indoleacetic acid, Sigma I7378) for 7 days; doses were 0, 2, and 5 mg/kg/day INDOMETHACIN was dissolved in corn oil. Treated animals were dosed orally (p.o.). The expression levels of FABP4 of the rat (SEQ. ID NO: 2) were measured using Affymetrix microarrays (RG U34A, probe sets: rc_AI169612_at) or Applied Biosystems Assays on Demand (assay ID: Rn00670361_ml).

[2] = tested on: livers; assay: Liver histopathology and clinical biochemistry in indomethacin treated rats; format: in vivo, Wistar rats
Experimental: as §2

[3] = tested on: rat FABP4 (SEQ. ID NO: 2); assay: FABP4 mRNA expression in rat liver by PCR (Applied Biosystems Assays on Demand); format: in vivo, Wistar rats
Experimental: as §1, §2

[4] = tested on: rat tissue (liver, heart, skeletal muscle, Brown adipose tissue); assay: Oral repeat-dose toxicity study in rats; format: in vivo, Wistar rats; settings: at similar exposure levels as in mice
Experimental: Wistar rats (RCC Ltd, Füllinsdorf): • treatment with 3-{1-[2-(2-CHLORO-PHENYL)-5-METHYL-OXAZOL-4-YLMETHYL]-1H-INDOL-5-YL}-2-ETHOXY-PROPIONIC ACID for 14 days; doses were 0, 0.3 and 1.2 mg/kg • Treatment with 3-{1-[2-(2-CHLORO-PHENYL)-5-METHYL-OXAZOL-4-YLMETHYL]-1H-INDOL-5-YL}-2-ETHOXY-PROPIONIC ACID for 28 days; doses were 0, 0.1, 0.5 and 2.5 mg/kg
(§3) Cynomolgus Monkey (macaca fascicularis): • treatment with 3-{1-[2-(2-CHLORO-PHENYL)-5-METHYL-OXAZOL-4-YLMETHYL]-1H-INDOL-5-YL}-2-ETHOXY-PROPIONIC ACID for 28 days; doses were 0, 0.015, 0.09 and 0.31 mg/kg • Treatment with 3-{1-[2-(2-CHLORO-PHENYL)-5-METHYL-OXAZOL-4-YLMETHYL]-1H-INDOL-5-YL}-2-ETHOXY-PROPIONIC ACID for 16 weeks; doses were […], 0.1, 0.3 and 1 mg/kg 3-{1-[2-(2-CHLORO-PHENYL)-5-METHYL-OXAZOL-4-YLMETHYL]-1H-INDOL-5-YL}-2-ETHOXY-PROPIONIC ACID was dissolved in 20% propylene glycol/phosphate buffer, pH8. Treated animals were dosed orally (p.o.).

[5] = tested on: monkey tissue (liver, heart, skeletal muscle, Brown adipose tissue); assay: Oral repeat-dose toxicity study in monkeys; format: in vivo, Cynomolgus Monkey (macaca fascicularis); settings: at similar exposure levels as in mice
Experimental: as §3

[6] = tested on: mice; assay: Oral repeat-dose toxicity study in mice; format: in vivo, mouse (CD-1, C57BL6)
Experimental: (§4) CD-1 mice (Charles River Laboratories, UK): • treatment with 3-{1-[2-(2-CHLORO-PHENYL)-5-METHYL-OXAZOL-4-YLMETHYL]-1H-INDOL-5-YL}-2-ETHOXY-PROPIONIC ACID for 1 day; doses were 0, 0.2 and 3 mg/kg • treatment with 3-{1-[2-(2-CHLORO-PHENYL)-5-METHYL-OXAZOL-4-YLMETHYL]-1H-INDOL-5-YL}-2-ETHOXY-PROPIONIC ACID for 10 days; doses were 0, 0.2 and 3 mg/kg • treatment with 3-{1-[2-(2-CHLORO-PHENYL)-5-METHYL-OXAZOL-4-YLMETHYL]-1H-INDOL-5-YL}-2-ETHOXY-PROPIONIC ACID for 14 days; doses were 0, 0.6 and 15 mg/kg
(§5) C57BL6 mice (RCC Ltd, Füllinsdorf): • treatment with 3-{1-[2-(2-CHLORO-PHENYL)-5-METHYL-OXAZOL-4-YLMETHYL]-1H-INDOL-5-YL}-2-ETHOXY-PROPIONIC ACID for 1 day; doses were 0, 0.2 and 3 mg/kg • treatment with 3-{1-[2-(2-CHLORO-PHENYL)-5-METHYL-OXAZOL-4-YLMETHYL]-1H-INDOL-5-YL}-2-ETHOXY-PROPIONIC ACID for 10 days; doses were 0, 0.2 and 3 mg/kg
as §3

[7] = tested on: mouse FABP4 (SEQ. ID NO: 3); assay: FABP4 gene expression in mouse liver (Affymetrix microarray MEA 230 plus); format: in vivo, mouse (CD1, C57Bl/6); settings: mice, after p.o. administration
Experimental: as §4, §5, §1

[8] = single dose 20 mg/kg, necropsy 24 hours

Molecule: ClC(Cl)(Cl)Cl [carbon tetrachloride]
- Expression of FABP4 in liver ([1]; rats, after administration): an induction of the expression of FABP4 was also found

Molecule: COc1ccc2c(c1)c(CC(=O)O)c(C)n2C(=O)c1ccc(Cl)cc1 [indomethacin, 1-(4-Chlorobenzoyl)-5-methoxy-2-methyl-3-indoleacetic acid]
- Expression of FABP4 in liver ([1]; Wistar, rat, in vivo): an induction of the expression of FABP4 was also found
- FABP4 expression relative to time matched vehicle control, Affymetrix result (Fold change) ([1]; 2 mg/kg/day for 7 days): 1 Fold change
- FABP4 expression relative to time matched vehicle control, Affymetrix result (Fold change) ([1]; 5 mg/kg/day for 7 days): 79.59 Fold change
- FABP4 expression relative to time matched vehicle control, Affymetrix result (Fold change) ([1]; single dose 2 mg/kg, necropsy 6 hours): 1 Fold change
- FABP4 expression relative to time matched vehicle control, Affymetrix result (Fold change) ([1]; single dose 2 mg/kg, necropsy 24 hours): 1 Fold change
- FABP4 expression relative to time matched vehicle control, Affymetrix result (Fold change) ([1]; single dose 10 mg/kg, necropsy 6 hours): 1 Fold change
- FABP4 expression relative to time matched vehicle control, Affymetrix result (Fold change) ([1]; single dose 10 mg/kg, necropsy 24 hours): 4.13 Fold change
- FABP4 expression relative to time matched vehicle control, Affymetrix result (Fold change) ([1]; single dose 20 mg/kg, necropsy 6 hours): 1 Fold change
- FABP4 expression relative to time matched vehicle control, Affymetrix result (Fold change) [1, 8]: 8.41 Fold change
- Expression of fatty acid binding protein 4 in liver (Affymetrix gene arrays) ([1]; rats, 24 hours after single dose 10 or 20 mg/kg, and 7 consecutive days 5 mg/kg/day): strong induction
- Clinical biochemistry parameters ([2]; especially 10 and 20 mg/kg single dose and 5 mg/kg/day repeated treatment): changes of different clinical biochemistry parameters indicative of liver changes
- Liver histopathology ([2]; p.o., dose dependent): Slight histopathological alterations (hepatocellular hypertrophy)
- Hepatocellular glycogen deposition ([2]; single administration of 10 or 20 mg/kg or 5 mg/kg/day for 7 consecutive days): Decreased hepatocellular glycogen deposition
- FABP4 expression relative to time matched vehicle control, PCR result (Fold change) ([3]; 5 mg/kg/day for 7 days): 26.92 Fold change
- FABP4 expression relative to time matched vehicle control, PCR result (Fold change) [3, 8]: 13.68 Fold change

Molecule: lipopolysaccharide
- Expression of FABP4 in liver ([1]; rats, after administration): an induction of the expression of FABP4 was also found

Molecule: CCOC(Cc1ccc2c(ccn2Cc2nc(-c3ccccc3Cl)oc2C)c1)C(=O)O (stereo not drawn) [3-{1-[2-(2-CHLORO-PHENYL)-5-METHYL-OXAZOL-4-YLMETHYL]-1H-INDOL-5-YL}-2-ETHOXY-PROPIONIC ACID]
- Toxicity in tissue (liver, heart, skeletal muscle, brown adipose tissue) [4]: not observed
- Toxicity in tissue (liver, heart, skeletal muscle, brown adipose tissue) [5]: not observed
- Dose at which mortality occurred ([6]; mice, p.o.): ≥ 0.6 mg/kg/day
- Exposure at which dose-dependent severe toxicity was found ([6]; mouse, in vivo, po): ≥ 50 × anticipated human exposure
- Findings in other tissues ([6]; mouse, in vivo, po): degeneration of heart and skeletal muscle, and brown adipose tissue
- Expression of FABP4 in liver ([1]; rat, in vivo): not induced
- Expression of fatty acid binding protein 4 in liver [7]: strong induction
